Measured values from US10517867B2, “Posaconazole derivative, pharmaceutical composition and use thereof” (priority 2016, dated 2019).
Read-outs that look alike come from different tables or passages of the source.

Assays:
[1] = Determination of solubility in deionized water (HPLC, external standard); settings: for solubility at 30 min: 25 °C, water, thermodynamic from solid
[2] = system: Aspergillus fumigatus AF293; assay: Lung Aspergillus fumigatus infection in immunosuppressed mice, intravenous administration; settings: for lung fungal load: mouse lung tissue, seven days later, mean ± SD; for responders at 20 mg/kg: Aspergillus fumigatus, AF293, in Mus musculus, iv
[3] = system: Candida albicans ATCC10231; assay: Candida albicans vaginitis in mice, intravenous administration; settings: logarithm of the CFU values, mean ± SD of 20 mice; for vaginal fungal load of mice, day 5: 20 mg/kg tail vein once a day for 5 days, day 5 after infection; for vaginal fungal load of mice, day 3: 20 mg/kg tail vein once a day, day 3 after infection
Description: KM mice, weighing 18-22 g, female, provided by Hubei Experimental Animal Center.
The standard strain of Candida albicans was purchased from the American Type Culture
Collection, strain number ATCC10231.
Prior to being infected with Candida albicans, animals in each group were given subcutaneous injections of 0.5 ml of estradiol benzoate (2 mg/ml) for 6 consecutive days to allow them to enter the estrus phase. Injections were continued once every 2 days until the completion of the experiment. After 6 days, 20 μl of Candida albicans solution in a concentration of 3.5×10^6 CFU/ml was injected vaginally into each mouse, causing a vaginal infection model. From the first day after infection, each group of animals was given 20 mg/kg of the corresponding drug (calculated as posaconazole) in the tail vein at an administration volume of 0.1 ml/10 g once a day for 5 consecutive days. The model group was given an equal volume of solvent (physiological saline). On the 3rd and 5th days after infection, the vagina of mice were wiped with sterile cotton swabs. The cotton swabs were soaked in 0.9 ml physiological saline. The fungal solutions were diluted to 10-fold increments to give a series of concentrations, and then 100 μl of each concentration of the bacteria solutions was taken and inoculated on Sabourand's dextrose agar solid medium containing 0.5% (W/V) chloramphenicol to observe the fungal load of Candida albicans on the vagina.

[4] = system: Aspergillus Fumigutus (AF) strains; assay: Aspergillus fumigatus keratitis in rats, intravenous administration; settings: 10 mg/kg tail vein once daily for 5 days; mean ± SD of 10 rats
[5] = system: Candida albicans ATCC10231; assay: Candida albicans vaginitis in mice, intragastric administration; format: in vivo, KM mice; settings: logarithm of the CFU values, mean ± SD of 20 mice; for vaginal fungal load of mice, day 15: 20 mg/kg intragastric once a day for 15 days; for vaginal fungal load of mice, day 3 / vaginal fungal load of mice, day 5 / vaginal fungal load of mice, day 7 / vaginal fungal load of mice, day 11: 20 mg/kg intragastric once a day
[6] = system: Aspergillus fumigatus AF293; assay: Lung Aspergillus fumigatus infection in immunosuppressed mice, intragastric administration; settings: mouse lung tissue, seven days later, 20 mg/kg intragastric once daily for 5 days, mean ± SD
Description: Aspergillus fumigatus AF293, from the Guangdong Provincial Microbial Culture Collection Center.
ICR male mice were injected intraperitoneally with cyclophosphamide 150 mg/kg and injected subcutaneously with dexamethasone 150 mg/kg for 10 consecutive days. At the same time, the blood was taken to measure the changes of peripheral white blood cells and neutrophils, and mice with neutrophils consistently lower than 100/μl were selected as successfully immunosuppressed mice. Immediately after the last injection, the mice were anesthetized with ethyl ether, and mice were transferred from the initial state of excitement to inhibition. After their bodies were relaxed, the mice were immediately taken. Left hand was used to grasp the mouse to make it stand upright, the middle finger pressed the mouth so that it could breath only with the nose, and the ring finger gently pressed the abdomen to move the diaphragm muscle upward. 30 μl of conidia suspension (Aspergillus fumigatus AF293, 3×10^6 conidia) was sent to the nostrils of the anesthetized mice by a micropipette to allow spontaneous inhalation. After the mouse returned to normal breathing, it was returned to the cage. […] Seven days later, the mice were sacrificed and their lung tissues were taken to observe the fungal loads of Aspergillus fumigatus in the lungs of the mice.

[7] = In vitro metabolic stability in human plasma; format: in vitro ADME; settings: 37° C., 10 μM compound, metabolic half-life
Method in brief: (§1)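 Human or rat plasma, preincubated 5 min at 37 °C, or intestinal S9 at 37 °C, spiked from 1 mM stock; triplicates sampled at 1, 2, 5, 15 and 30 min into cold internal standard. HPLC quantitation; half-life by non-compartmental analysis.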

[8] = In vitro metabolic stability in rat intestine S9; format: in vitro ADME; settings: 37° C., 10 μM compound, 1 mg/mL S9, NADPH regeneration system
Method in brief: as §1

[9] = system: Candida albicans ATCC10231; assay: Systemic fungal infection in mice, intragastric administration; format: in vivo, ICR mice; settings: for responders at 20 mg/kg: Candida albicans, ATCC10231, po
[10] = In vitro metabolic stability in rat plasma; format: in vitro ADME; settings: 37° C., 10 μM compound, metabolic half-life
Method in brief: as §1

[11] = In vitro metabolic stability in human intestine S9; format: in vitro ADME; settings: 37° C., 10 μM compound, 1 mg/mL S9, NADPH regeneration system
Method in brief: as §1

[12] = Solid stability test (stability chamber, HPLC total impurity); format: physicochemical; settings: solid, packaged, 25° C.±2° C., relative humidity 60%±2%
[13] = Pharmacokinetics after single intragastric administration to rats; format: in vivo, SD rats; settings: plasma posaconazole, 2.5 mg/kg (calculated as posaconazole)
Description: Administration amount: 2.5 mg/kg (calculated as posaconazole)
Administration volume: 10 ml/kg
Drug concentration: 0.25 mg/mL
Administration vehicle: the positive drug posaconazole group used CMC—Na, while other groups used normal saline (physiological saline)
Administration route: intragastric administration
Experimental animals: SD rats, SPF grade, weighing 180-220 g, equal amount of male and female. Rats were randomly divided into groups of 6 with 3 males and 3 females.
Experimental protocol: after oral intragastric administration, blood samples were collected at different time points to determine the concentration of posaconazole in the plasma and the pharmacokinetic parameters of posaconazole were obtained.

[14] = 24 h, read-out: survival rate of mice, day 1, 20 mg/kg tail vein once daily for 5 days, day 1
[15] = 48 h, read-out: survival rate of mice, day 2, 20 mg/kg tail vein once daily for 5 days, day 2
[16] = 72 h, read-out: survival rate of mice, day 3, 20 mg/kg tail vein once daily for 5 days, day 3
[17] = 96 h, read-out: survival rate of mice, day 4, 20 mg/kg tail vein once daily for 5 days, day 4
[18] = 120 h, read-out: survival rate of mice, day 5, 20 mg/kg tail vein once daily for 5 days, day 5
[19] = 144 h, read-out: survival rate of mice, day 6, 20 mg/kg tail vein once daily for 5 days, day 6
[20] = 168 h, read-out: survival rate of mice, day 7, 20 mg/kg tail vein once daily for 5 days, day 7
[21] = 20 mg/kg tail vein once daily for 5 days

SMILES: CC[C@@H]([C@H](C)O)n1ncn(-c2ccc(N3CCN(c4ccc(OC[C@@H]5CO[C@@](Cn6c[n+](C(C)OC(=O)N(C)c7ncccc7COC(=O)[C@@H](N)CCCN)cn6)(c6ccc(F)cc6F)C5)cc4)CC3)cc2)c1=O (stereo partly drawn) [ST0007]
- solubility at 30 min [1]: > 50 mg/mL
- survival rate of mice, day 1 ([2]; 20 mg/kg tail vein once daily for 5 days, day 1): 100%
- survival rate of mice, day 2 ([2]; 20 mg/kg tail vein once daily for 5 days, day 2): 100%
- survival rate of mice, day 3 ([2]; 20 mg/kg tail vein once daily for 5 days, day 3): 100%
- survival rate of mice, day 4 ([2]; 20 mg/kg tail vein once daily for 5 days, day 4): 100%
- survival rate of mice, day 5 ([2]; 20 mg/kg tail vein once daily for 5 days, day 5): 90%
- survival rate of mice, day 6 ([2]; 20 mg/kg tail vein once daily for 5 days, day 6): 90%
- lung fungal load ([2]; 20 mg/kg tail vein once daily for 5 days, 20 mg/kg): 1.68 ± 0.31 10^4 CFU/ml
- vaginal fungal load of mice, day 5 ([3]; 20 mg/kg): 3.87 ± 0.31
- vaginal fungal load of mice, day 3 ([3]; 20 mg/kg): 4.08 ± 0.52
- Amount of active fungi in cornea at day 7 [4]: 1.87 ± 0.35 10^3 CFU/ml
- vaginal fungal load of mice, day 15 ([5]; 20 mg/kg): 2.87 ± 0.24
- vaginal fungal load of mice, day 3 ([5]; 20 mg/kg): 4.35 ± 0.54
- vaginal fungal load of mice, day 5 ([5]; 20 mg/kg): 4.47 ± 0.65
- vaginal fungal load of mice, day 7 ([5]; 20 mg/kg): 4.23 ± 0.41
- vaginal fungal load of mice, day 11 ([5]; 20 mg/kg): 3.81 ± 0.27
- lung fungal load ([6]; 20 mg/kg): 4.12 ± 0.87 10^4 CFU/ml

SMILES: CCC(O[C@@H](C)[C@H](CC)n1ncn(-c2ccc(N3CCN(c4ccc(OC[C@@H]5CO[C@@](Cn6cncn6)(c6ccc(F)cc6F)C5)cc4)CC3)cc2)c1=O)OP(=O)([O-])[O-].[Na+].[Na+] (stereo partly drawn) [ST0093]
- Solubility ([1]; 25±2° C., after 30 min): 27.9 mg/mL
- Human plasma T1/2 [7]: 18.95 ± 2.76 min
- Rat intestine S9 T1/2 [8]: 57.25 ± 12.56 min
- survival rate of mice, day 1 ([9]; 20 mg/kg intragastric once daily for 5 days, day 1): 70%
- survival rate of mice, day 2 ([9]; 20 mg/kg intragastric once daily for 5 days, day 2): 70%
- survival rate of mice, day 3 ([9]; 20 mg/kg intragastric once daily for 5 days, day 3): 60%
- survival rate of mice, day 4 ([9]; 20 mg/kg intragastric once daily for 5 days, day 4): 60%
- survival rate of mice, day 5 ([9]; 20 mg/kg intragastric once daily for 5 days, day 5): 60%
- survival rate of mice, day 6 ([9]; 20 mg/kg intragastric once daily for 5 days, day 6): 60%
- survival rate of mice, day 7 ([9]; 20 mg/kg intragastric once daily for 5 days, day 7): 60%
- Rat plasma T1/2 [10]: 15.69 ± 4.88 min
- Human intestine S9 T1/2 [11]: 61.98 ± 14.26 min
- Total impurity increment in 30 days [12]: 0.91%
- AUClast [13]: 3056 ± 1265 ng·h/mL
- Cmax [13]: 125 ± 58 ng/mL
- T1/2 [13]: 746.4 ± 128 min

SMILES: CC[C@@H]([C@H](C)OC(=O)[C@@H](N)CO)n1ncn(-c2ccc(N3CCN(c4ccc(OC[C@@H]5CO[C@@](Cn6c[n+](C(C)OC(=O)N(C)c7ncccc7COC(=O)[C@@H](N)CCCN)cn6)(c6ccc(F)cc6F)C5)cc4)CC3)cc2)c1=O (stereo partly drawn) [ST0010]
- solubility at 30 min [1]: > 50 mg/mL
- responders at 20 mg/kg [2, 14]: 100%
- responders at 20 mg/kg [2, 15]: 100%
- responders at 20 mg/kg [2, 16]: 90%
- responders at 20 mg/kg [2, 17]: 80%
- responders at 20 mg/kg [2, 18]: 80%
- responders at 20 mg/kg [2, 19]: 70%
- responders at 20 mg/kg [2, 20]: 60%
- lung fungal load [2, 21]: 2.75 ± 0.37 10^4 CFU/ml
- Amount of active fungi in cornea at day 7 [4]: 3.93 ± 0.73 10^3 CFU/ml
- vaginal fungal load of mice, day 15 [5]: 2.75 ± 0.41
- vaginal fungal load of mice, day 3 [5]: 4.21 ± 0.32
- vaginal fungal load of mice, day 5 [5]: 4.38 ± 0.41
- vaginal fungal load of mice, day 7 [5]: 3.97 ± 0.55
- vaginal fungal load of mice, day 11 [5]: 3.37 ± 0.28
- responders at 20 mg/kg ([9]; 24 h, read-out: survival rate of mice, day 1, 20 mg/kg intragastric once daily for 5 days, day 1): 100%
- responders at 20 mg/kg ([9]; 48 h, read-out: survival rate of mice, day 2, 20 mg/kg intragastric once daily for 5 days, day 2): 100%
- responders at 20 mg/kg ([9]; 72 h, read-out: survival rate of mice, day 3, 20 mg/kg intragastric once daily for 5 days, day 3): 90%
- responders at 20 mg/kg ([9]; 96 h, read-out: survival rate of mice, day 4, 20 mg/kg intragastric once daily for 5 days, day 4): 70%
- responders at 20 mg/kg ([9]; 120 h, read-out: survival rate of mice, day 5, 20 mg/kg intragastric once daily for 5 days, day 5): 70%
- responders at 20 mg/kg ([9]; 144 h, read-out: survival rate of mice, day 6, 20 mg/kg intragastric once daily for 5 days, day 6): 60%
- responders at 20 mg/kg ([9]; 168 h, read-out: survival rate of mice, day 7, 20 mg/kg intragastric once daily for 5 days, day 7): 60%
- lung fungal load [6]: 3.40 ± 0.63 10^4 CFU/ml

SMILES: CC[C@@H]([C@H](C)OP(=O)(O)O)n1ncn(-c2ccc(N3CCN(c4ccc(OC[C@@H]5CO[C@@](Cn6c[n+](C(C)OC(=O)N(C)c7ncccc7COC(=O)[C@@H](N)CCCN)cn6)(c6ccc(F)cc6F)C5)cc4)CC3)cc2)c1=O (stereo partly drawn) [ST0009]
- solubility at 30 min [1]: > 50 mg/mL
- responders at 20 mg/kg [2, 14]: 100%
- responders at 20 mg/kg [2, 15]: 100%
- responders at 20 mg/kg [2, 16]: 100%
- responders at 20 mg/kg [2, 17]: 90%
- responders at 20 mg/kg [2, 18]: 80%
- responders at 20 mg/kg [2, 19]: 80%
- responders at 20 mg/kg [2, 20]: 70%
- lung fungal load [2, 21]: 2.03 ± 0.46 10^4 CFU/ml
- vaginal fungal load of mice, day 5 [3]: 3.89 ± 0.54
- vaginal fungal load of mice, day 3 [3]: 4.05 ± 0.23
- Amount of active fungi in cornea at day 7 [4]: 2.76 ± 0.45 10^3 CFU/ml
- lung fungal load [6]: 3.91 ± 0.85 10^4 CFU/ml
